Common to all, as to type: in vivo
Experiment [1] has as its system ApoE−/− and ApoE−/−/IDO−/− mice. Nature of the experiment: AngII-induced AAA after reciprocal bone marrow transplants. The note with it: AngII 1000 ng/min per kg, 4 weeks. As for the experimental part: Bone marrow transplantation was performed as described previously (Lukasova M, et al., Nicotinic acid inhibits progression of atherosclerosis in mice through its receptor GPR109A expressed by immune cells. J Clin Invest. (2011) 121:1163-73; Duran-Struuck R and Dysko R C. Principles of bone marrow transplantation (BMT): providing optimal veterinary and husbandry care to irradiated mice in BMT studies. J Am Assoc Lab Anim Sci. (2009) 48:11-22). Bone marrow was obtained aseptically from femora and tibiae of ApoE^−/− or ApoE^−/−/IDO^−/− mice. Cells (5×10^6/mouse) were resuspended in sterile PBS and transplanted by intravenous infusion into lethally irradiated (10 Gy) ApoE^−/− or ApoE^−/−/IDO^−/− mice recipients 6 hours after irradiation at the age of 8 weeks.
To quantify AAA incidence and size, the maximum width of abdominal aorta was measure with Image Pro Plus software (Media Cybernetics). We quantified aneurysm incidence based on a definition of aneurysm as an external width of the suprarenal aorta that was increased by 50% or greater compared with aortas from saline-infused mice, as described previously (Sparks A R, et al., Imaging of abdominal aortic aneurysms. Am Fam Physician. (2002) 65:1565-70). The average diameter of the normal suprarenal aorta in control mice is 0.8 mm. We therefore set a threshold of 1.22 mm as evidence of aneurysm formation. […]

The test system of experiment [2] is ApoE−/− mice. Nature of the experiment: Acipimox preventing AngII-induced abdominal aortic aneurysm (Example 12). Here is the method:
To evaluate whether acipimox has inhibitory effects on AngII-induced AAA formation, male ApoE^−/− mice at age eight weeks were administrated either 1) acipimox (0.1% wt) or 2) vehicle control (water) by drinking water. After four weeks, Alzet osmotic mini pumps (Model 2004) were implanted into each group. Pumps were filled either with 1) saline vehicle or 2) solutions of Ang II (Sigma Chemical Co., St. Louis, Missouri, USA) that delivered (subcutaneously) 1.44 mg/kg/day of Ang II for 28 days. Pumps were placed into the subcutaneous space of isoflurane anesthetized mice through a small incision in the back of the neck that was closed with surgical glue. All incision sites healed rapidly without the need for any medication.
To quantify AAA incidence and size, the maximum width of abdominal aorta was measured with Image Pro Plus software (Media Cybernetics). Aneurysm incidence was quantified based on a definition of aneurysm as an external width of the suprarenal aorta that was increased by 50% or greater compared with aortas from saline-infused mice. The average diameter of the normal suprarenal aorta in control mice is 0.8 mm. […]
Abdominal aorta dimeter was measured by ultrasound as described above.
The effect of acipimox on the speed of propagation (i.e. PWV), which is parameter for arterial stiffness, was analyzed.

The subject of experiment [3] is ApoE−/− and ApoE−/−/IDO−/− mice. Briefly: AngII-induced AAA formation in ApoE−/− and ApoE−/−/IDO−/− mice. To be noted: AngII 1000 ng/min/kg, 4 weeks. An excerpt: IDO^−/− and ApoE^−/− mice were obtained from Jackson laboratory (Bar Harbor, Maine) in a C57BL/6 background. IDO^−/− mice were crossed with ApoE^−/− mice to generate ApoE^−/−/IDO^−/− mice. Mice were housed in temperature-controlled cages under a 12-hour light/dark cycle and given free access to water and normal chow. All procedures involving animals were approved by the Institutional Animal Care and Use Committee at the University of Oklahoma Health Sciences Center. […] Circ Res. (2014) 114:480-92.
To quantify AAA incidence and size, the maximum width of abdominal aorta was measure with Image Pro Plus software (Media Cybernetics). We quantified aneurysm incidence based on a definition of aneurysm as an external width of the suprarenal aorta that was increased by 50% or greater compared with aortas from saline-infused mice, as described previously (Sparks A R, et al., Imaging of abdominal aortic aneurysms. Am Fam Physician. (2002) 65:1565-70). The average diameter of the normal suprarenal aorta in control mice is 0.8 mm. […]
AngII-induced mouse AAA formation in the atherosclerotic-susceptible strain (ApoE^−/−) has become the most widely used model. […] To unravel the role of the Trp-Kyn pathway in AAA formation ApoE^−/−/IDO^−/− (double-knockout) mice were generated and the outcome of a 4-week AngII infusion (1000 ng/min/kg) in ApoE^−/− and ApoE^−/−/IDO^−/− mice was determined. […]

Turning to “Angiotensin II (DRVYIHPF; Angiotensin-2; UniProt P01019 25-32, looked up) [AngII, Angiotensin II (Sigma, A9525) infused to induce AAA in mice]”, the AAA incidence entry in experiment [1] (ApoE−/− mice transplanted with IDO−/− or IDO+/+ bone marrow cells) is “approximately 70%”; in experiment [1] (ApoE−/−/IDO−/− mice transplanted with IDO−/− or IDO+/+ bone marrow cells), 20%. In addition, the mortality rate in experiment [2] (Ang II 1.44 mg/kg/day 28 days, with acipimox 0.1% wt or vehicle) is reported as 28.6%. Further, in experiment [2] (Ang II 1.44 mg/kg/day s.c. 28 days, acipimox 0.1% wt or vehicle in drinking water, started four weeks before), the “mice that developed AAA (AAA incidence)” value is listed as “Eighty”. The results for the “incidence of AngII-induced AAA” value in experiment [3] (ApoE−/− mice) and in experiment [3] (ApoE−/−/IDO−/− mice) were 73% and 15%, respectively.

The record behind these values is patent US12280047B2, “Treatment of aneurysms” (Georgia State Research Foundation, Inc., priority 2017, dated 2025).
